Reference: paper PMC6149971, “In Vivo and In Vitro Activities and ADME-Tox Profile of a Quinolizidine-Modified 4-Aminoquinoline: A Potent Anti-P. falciparum and Anti-P. vivax Blood-Stage Antimalarial” (Molecules : A Journal of Synthetic Chemistry and Natural …, 2017)
Values joined by “and” are separate entries in the source; they are usually repeats but may differ in a detail not shown here. Equal values may be shown once.

Legend:
P. vivax field isolates = test: In vitro assay against P. vivax field isolates; format: cell-based; details: 10 field isolates from the Thai–Burmese border, mean; read-out: P. vivax IC50, field isolates
Text: Ten P. vivax isolates were collected from June to July 2010 from malaria patients attending the Shoklo Malaria Research Unit (SMRU) clinics, Mae Sot region of the Tak Province in north-western Thailand under the ethical guidelines in the approved protocol OXTREC 027-05 (Centre for Clinical Vaccinology and Tropical Medicine, University of Oxford, Oxford, UK). These samples were collected from patients with no prior antimalarial therapy and with microscopically confirmed P. vivax. After written consent, blood samples were collected by venepuncture in 5 mL volume lithium heparinized tubes, which were then transported to the laboratory at SMRU within 5 h of collection. The ten isolates were chosen for testing because the majority (>80%) of the parasites were at the mid trophozoite stage (around 20 h post invasion) and no schizonts were detected.

[1] = system: chloroquine-sensitive and resistant P. falciparum strains; test: In vitro antimalarial activity, range over the strain panel; format: cell-based; details: D10, W-2, FCR1, FCR3, TM91C235; range over strains and forms; read-out: IC50 range against CQ-S and CQ-R P. falciparum strains
[2] = design: method as in PMID 19651905; details: pH 7.4; cited from earlier work
[3] = Metabolites in mouse plasma after oral treatment; format: in vivo; design: key: +: Metabolic Products Detected In Vitro and In Vivo; ND: Not detectable; details: after 50 mg/kg (−)-AM1 oral gavage, at 120 min
Procedure: A representative chromatogram in the mouse and the MS spectra are shown in Figure S1 (Supplementary Materials), while the proposed structures of metabolites in all the species, together with the retention times, are shown in Table 3. In the same table, the metabolites found in mouse plasma after 50 mg/kg oral treatment are included. The retention times and [M + H]^+ of the metabolites are the same for all three species.
The parent [M + H]^+ = 330 and the metabolites [M + H]^+ = 346 and [M + H]^+ = 344 were also detected in the mouse plasma samples collected after oral treatment of CD1 mice with 50 mg/kg of (−)-AM1 (Figure S4).
(§1) Samples from the metabolic stability and metabolism studies were analyzed under the following conditions: UPLC interfaced with a Premiere XE triple Quadrupole Waters for stability studies, and Bruker Daltonics Ion Trap HCT Ultra for metabolic studies. A gradient from 2% to 100% (Water, MeOH, 5 mM Ammonium Acetate) over 2 min (stability) or 12 min (metabolism) in a C18 BEH (dimensions 1 by 50 mm for stability and 2.1 by 100 mm for metabolism, 1.7 µm column, 45 °C temperature, flow rate 0.5 mL/min) was used. […]

[4] = Microsome stability and metabolism studies, human; format: in vitro ADME; design: key: +: Metabolic Products Detected In Vitro and In Vivo; ND: Not detectable; details: (−)-AM1 1 μM, at 30 min
Procedure: as §1
For stability and metabolism studies, test compounds were dissolved in DMSO, diluted at the final concentration of 1 µM, and pre-incubated in duplicate for 10 min at 37 °C in potassium phosphate buffer, pH 7.4, 3 mM MgCl2, with rat, mouse, and human hepatic microsomes (Xenotech Europe, Pfungstadt, Germany) at the final concentration of 0.5 mg/mL. […] Samples were then centrifuged and the supernatants analysed and quantified by LC-MS/MS. […]
(§2) The percentage of the area of test compounds remaining after 30 min incubation was calculated in respect to the area of compounds at time = 0 min. […] Samples were re-analyzed by acquiring the daughter scan of the potential metabolites found during the full scan acquisition.

[5] = Microsome stability and metabolism studies, mouse; format: in vitro ADME; design: key: +: Metabolic Products Detected In Vitro and In Vivo; ND: Not detectable; details: (−)-AM1 1 μM, at 30 min
Procedure: (§3) Samples from the metabolic stability and metabolism studies were analyzed under the following conditions: UPLC interfaced with a Premiere XE triple Quadrupole Waters for stability studies, and Bruker Daltonics Ion Trap HCT Ultra for metabolic studies. A gradient from 2% to 100% (Water, MeOH, 5 mM Ammonium Acetate) over 2 min (stability) or 12 min (metabolism) in a C18 BEH (dimensions 1 by 50 mm for stability and 2.1 by 100 mm for metabolism, 1.7 µm column, 45 °C temperature, flow rate 0.5 mL/min) was used. For stability studies, the detection was performed in MRM (ESI positive, Q1/Q3 330.16/152.00, Cone Voltage 45 V; Extractor 5 V; Capillary 3.4 kV), while for metabolism studies, analysis was performed in Auto MS/MS mode (ESI positive; Capillary 109 V; Dry Temp 350 °C; Nebulizer 30 psi; Dry gas 10 L/min; HV capillary 500 V; Mass Accu time 500 µs; Mass range MS scan 100–600 amu, MS/MS 50–450 amu).
(§4) For stability and metabolism studies, test compounds were dissolved in DMSO, diluted at the final concentration of 1 µM, and pre-incubated in duplicate for 10 min at 37 °C in potassium phosphate buffer, pH 7.4, 3 mM MgCl2, with rat, mouse, and human hepatic microsomes (Xenotech Europe, Pfungstadt, Germany) at the final concentration of 0.5 mg/mL. The reaction was then started by adding the cofactor mixture of NADP, Glc6P, and G6P-DH, in the presence of UDPGA 1 mM in human microsomes to promote glucuronide formation. Acetonitrile (with verapamil as internal standard) was added to the samples at the times time 0 and 30 min to stop the reaction. Samples were then centrifuged and the supernatants analysed and quantified by LC-MS/MS. Reference compounds of known metabolic stability, 7-ethoxycoumarin (7-EC) and propranolol, were used as controls.
as §2

[6] = Microsome stability and metabolism studies, rat; format: in vitro ADME; design: key: +: Metabolic Products Detected In Vitro and In Vivo; ND: Not detectable; details: (−)-AM1 1 μM, at 30 min
Procedure: as §3, §4, §2

CYP2C19 = CYP2C19 (Homo sapiens, UniProt P33261); test: in vitro
P. falciparum W-2 (CQ-R) = system: P. falciparum W-2 (CQ-R); design: method as in PMID 22901673; details: 72 h incubation, pLDH method, mean of 3 experiments; data already published; cited from earlier work
P. falciparum D10 (CQ-S) = system: P. falciparum D10 (CQ-S); design: method as in PMID 22901673; details: 72 h incubation, pLDH method, mean of 3 experiments; data already published; cited from earlier work
P. berghei ANKA = test: Standard four-day suppressive test, P. berghei; format: in vivo; details: CD1 mice, oral, once a day for four days, parasitaemia on day 4
Procedure: Groups of five CD1 mice were inoculated i.v. with 4 × 10^6 infected erythrocytes/mice. The compound, dissolved in standard suspending formula (SSV) (0.5% sodium carboxymethylcellulose, 0.5% benzyl alcohol, 0.4% Tween 80, 0.9% NaCl), was administered orally, once a day for a period of four days, starting two hours post-infection. […] Parasitaemia was determined by microscopic examination of Giemsa-stained blood films taken on day four, processed using MICROSOFT® EXCEL spreadsheets (Microsoft Corp., Redmond, WA, USA), and expressed as percentages of inhibition from the arithmetic mean parasitaemias of each group in relation to the untreated group. ED50 and ED90 values were calculated by GraphPad Prism 6 (GraphPad Software Inc, La Jolla, CA, USA).

CYP3A4 = CYP3A4 (Homo sapiens, UniProt P08684); test: in vitro
CYP1A2 = target: T1, CYP1A2 (Homo sapiens, UniProt P05177); test: in vitro
T1 sequence (P05177 1-516): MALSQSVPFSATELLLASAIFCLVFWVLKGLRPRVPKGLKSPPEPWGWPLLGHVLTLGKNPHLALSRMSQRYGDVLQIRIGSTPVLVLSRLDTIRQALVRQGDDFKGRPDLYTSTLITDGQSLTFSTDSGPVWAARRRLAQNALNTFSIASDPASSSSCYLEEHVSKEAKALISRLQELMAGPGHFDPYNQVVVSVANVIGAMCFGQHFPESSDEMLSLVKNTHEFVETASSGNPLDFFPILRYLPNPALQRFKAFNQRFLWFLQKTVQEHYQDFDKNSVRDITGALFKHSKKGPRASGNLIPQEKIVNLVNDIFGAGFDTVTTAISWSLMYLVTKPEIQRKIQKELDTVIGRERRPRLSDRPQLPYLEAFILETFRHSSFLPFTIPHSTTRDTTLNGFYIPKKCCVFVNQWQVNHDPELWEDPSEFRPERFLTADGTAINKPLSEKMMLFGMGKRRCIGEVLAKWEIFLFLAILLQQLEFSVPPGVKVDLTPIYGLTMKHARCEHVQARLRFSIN

[7] = Pharmacokinetics in CD-1 mice after oral administration; format: in vivo, mouse; details: male, CD-1, mouse, in vivo, po, 10 mg/kg
Procedure: Samples from the pharmacokinetic studies were analyzed under the following conditions: UPLC interfaced with a Premiere XE triple Quadrupole, Waters. A gradient from 2 to 100% (Water, MeOH, 5 mM Ammonium Acetate) over 1.3 min was used in Acquity HSS T3 (dimensions 2.1 by 50 mm, 1.8 µm column, 40 °C temperature, flow rate 0.5 mL/min). Detection was performed in MRM (ESI positive, Q1/Q3 330.16/152.00, Cone Voltage 45 V; Extractor 5 V; Capillary 3.4 kV). The limit of detection was 1 ng/mL. Pharmacokinetic parameters were determined by Non-Compartmental Analysis, using the linear trapezoidal rule and uniform weight.
Pharmacokinetic data were collected in mice by testing the racemate and the enantiomers at the same single dose, and vehicle-utilized for in vivo studies (see composition in paragraph 4.4). Briefly, male CD-1 mice (Charles River Laboratories) weighing 18–22 g received single dose (10 mg/kg) oral administrations of the AM1 racemate and single enantiomers, each dissolved in SSV. For each experiment, twenty-four mice/dose and three mice/time-point were used. Blood samples were collected at eight selected time-points (15, 30 and 60 min; 2, 4, 6, 8 and 24 h) under ethyl ether anaesthesia. The heparinized tubes containing blood samples were immediately placed on ice and centrifuged, and the supernatant collected and frozen at −80 °C prior to analysis. Pharmacokinetic plasma samples (spiked with internal standard) were filtered (Sirocco filter plate, Waters) under vacuum, and 5 µL analysed by LC-MS/MS.

CYP2C9 = CYP2C9 (Homo sapiens, UniProt P11712); test: in vitro
CYP2D6 = CYP2D6 (Homo sapiens, UniProt P10635); test: in vitro
Chain of CYP2D6 (P10635 whole entry): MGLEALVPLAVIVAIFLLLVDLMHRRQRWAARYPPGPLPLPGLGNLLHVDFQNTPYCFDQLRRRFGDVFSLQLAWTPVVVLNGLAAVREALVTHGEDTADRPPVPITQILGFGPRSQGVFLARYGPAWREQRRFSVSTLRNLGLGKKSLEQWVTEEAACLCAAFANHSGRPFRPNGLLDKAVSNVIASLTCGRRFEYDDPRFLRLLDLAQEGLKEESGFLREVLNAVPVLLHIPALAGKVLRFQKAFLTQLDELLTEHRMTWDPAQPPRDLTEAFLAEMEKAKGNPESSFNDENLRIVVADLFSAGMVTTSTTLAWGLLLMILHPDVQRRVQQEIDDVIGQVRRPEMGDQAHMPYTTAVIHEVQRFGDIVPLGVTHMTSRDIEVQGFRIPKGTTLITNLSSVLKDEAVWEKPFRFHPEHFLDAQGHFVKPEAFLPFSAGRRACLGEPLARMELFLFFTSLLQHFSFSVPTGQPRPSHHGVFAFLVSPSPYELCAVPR

Chain of CYP2C19 (P33261 whole entry): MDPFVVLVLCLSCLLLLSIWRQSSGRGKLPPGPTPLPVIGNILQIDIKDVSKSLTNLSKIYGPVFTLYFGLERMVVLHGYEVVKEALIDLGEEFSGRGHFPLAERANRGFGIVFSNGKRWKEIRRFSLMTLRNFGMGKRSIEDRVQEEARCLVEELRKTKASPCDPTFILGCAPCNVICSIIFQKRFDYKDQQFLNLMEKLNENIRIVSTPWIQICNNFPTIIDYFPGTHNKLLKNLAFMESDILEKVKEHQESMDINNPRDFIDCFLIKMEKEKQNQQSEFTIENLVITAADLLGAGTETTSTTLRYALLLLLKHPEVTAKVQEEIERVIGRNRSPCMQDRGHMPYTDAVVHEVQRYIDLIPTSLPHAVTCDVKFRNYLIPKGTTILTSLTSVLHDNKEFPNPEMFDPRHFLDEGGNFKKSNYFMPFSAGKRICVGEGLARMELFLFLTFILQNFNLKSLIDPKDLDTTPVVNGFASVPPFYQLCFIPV
Chain of CYP3A4 (P08684 whole entry): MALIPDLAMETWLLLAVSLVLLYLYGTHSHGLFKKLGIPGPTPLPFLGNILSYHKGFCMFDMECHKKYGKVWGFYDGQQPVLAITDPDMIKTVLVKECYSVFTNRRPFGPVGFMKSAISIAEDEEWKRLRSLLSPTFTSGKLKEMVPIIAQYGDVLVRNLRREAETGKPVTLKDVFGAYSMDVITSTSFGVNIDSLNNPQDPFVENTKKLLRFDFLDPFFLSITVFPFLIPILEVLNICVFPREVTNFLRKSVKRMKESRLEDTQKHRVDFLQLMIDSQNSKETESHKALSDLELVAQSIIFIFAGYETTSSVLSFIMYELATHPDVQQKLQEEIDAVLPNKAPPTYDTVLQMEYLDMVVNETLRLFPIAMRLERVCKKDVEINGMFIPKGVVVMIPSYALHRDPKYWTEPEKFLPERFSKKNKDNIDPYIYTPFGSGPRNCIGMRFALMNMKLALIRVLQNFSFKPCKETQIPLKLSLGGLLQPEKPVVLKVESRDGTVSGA
Chain of CYP2C9 (P11712 whole entry): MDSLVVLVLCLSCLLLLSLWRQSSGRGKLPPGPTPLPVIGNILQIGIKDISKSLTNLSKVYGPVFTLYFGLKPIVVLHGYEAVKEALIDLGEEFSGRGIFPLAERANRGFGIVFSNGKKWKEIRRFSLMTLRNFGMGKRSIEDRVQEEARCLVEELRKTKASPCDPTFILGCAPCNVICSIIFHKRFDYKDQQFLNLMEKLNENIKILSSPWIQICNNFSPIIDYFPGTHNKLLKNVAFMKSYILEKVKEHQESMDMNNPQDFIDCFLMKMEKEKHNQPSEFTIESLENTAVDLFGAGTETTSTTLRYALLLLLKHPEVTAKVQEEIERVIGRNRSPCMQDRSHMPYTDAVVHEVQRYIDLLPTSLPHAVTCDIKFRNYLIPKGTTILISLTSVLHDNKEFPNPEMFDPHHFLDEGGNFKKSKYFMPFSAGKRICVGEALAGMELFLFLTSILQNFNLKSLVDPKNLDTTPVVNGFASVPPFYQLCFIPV

## Clc1ccc2c(NCC3CCCN4CCCCC34)ccnc2c1 (centres unmarked) [AM1, 7-chloro-4-(N-lupinyl)aminoquinoline]
P. vivax field isolates
  IC50: 29 nM
[1]
  IC50: 16 to 53 nM
[2]
  LogD7.4: 2.26

## [O-][NH+](CC1CCCN2CCCCC12)c1ccnc2cc(Cl)ccc12 (centres unmarked) [C00003]
[3]
  Metabolic products detected, in vivo plasma levels, mouse: +
[4]
  Metabolic products detected, in vitro microsomes, human: +
[5]
  Metabolic products detected, in vitro microsomes, mouse: +
[6]
  Metabolic products detected, in vitro microsomes, rat: +

## Clc1ccc2c(NC[C@H]3CCCN4CCCC[C@@H]34)ccnc2c1 [(+)-AM1, 7-chloro-N-(((1R,9aS)-octahydro-1H-quinolizin-1-yl)methyl)quinolin-4-amine]
CYP2C19
  inhibition at 3 µM: 9 ± 1.1%
P. falciparum W-2 (CQ-R)
  IC50: 35.8 nM
P. falciparum D10 (CQ-S)
  IC50: 17.5 nM
P. berghei ANKA
  P. berghei ED90 (95% CI): 2.03 (1.46–2.60) mg/kg
P. berghei ANKA; Plasmodium berghei, 96 h, read-out: P. berghei ED50 (95% CI)
  ED50: 1.6 mg/kg
CYP3A4
  inhibition at 3 µM: 14.3 ± 1.9%
CYP1A2
  inhibition at 3 µM: 8.3 ± 0.8%
[7]
  AUC(0-t): 0.382 µM·h and 126 ng·h/mL
  Cmax: 108 nM and 35.5 ng/mL
  MRT last: 2.7 h
  Tmax: 2 h
CYP2C9
  inhibition at 3 µM: 11.1 ± 0.5%
CYP2D6
  inhibition at 3 µM: 62.2 ± 1%
